How the values were obtained:
Assay in all cases: Protein kinase inhibition assay
Format in all cases: biochemical
[1] = target: TBK1(h) (Homo sapiens, UniProt Q9UHD2); conditions: read-out: percent residual activity of TBK1(h)
Experimental: (§1) Certain compounds were tested for activity in protein kinase inhibition assays. All substrates were dissolved and diluted to working stocks in de-ionized water, apart from histone H1 (10× working stock in 20 mM MOPS pH 7.0), PDKtide (10× working stock in 50 mM Tris pH 7.0) ATF2 (which is typically stored at a 20× working stock in 50 mM Tris pH 7.5, 150 mM NaCl, 0.1 mM EGTA, 0.03% Brij-35, 50% glycerol, 1 mM benzamidine, 0.2 mM PMSF and 0.1% R-mercaptoethanol), KKLNRTLSFAEPG (SEQ ID NO:203) and RRRLSFAEPG (SEQ ID NO:204) (50 mM HEPES pH 7.4) and GGEEEEYFELVKKKK (SEQ ID NO:205) (20 mM MOPS pH 7.0). All kinases were pre-diluted to a 10× working concentration prior to addition into the assay. The composition of the dilution buffer for each kinase is detailed below.
(§2) In a final reaction volume of 25 μl, TBK1 (h) (5-10 mU) is incubated with 8 mM MOPS pH 7.0, 0.2 mM EDTA, 200 μM KRRRALS(p)VASLPGL (SEQ ID NO:214), 10 mM MgAcetate and [gamma-33P-ATP] (specific activity approx. 500 cpm/pmol, concentration as required). The reaction is initiated by the addition of the MgATP mix. After incubation for 40 minutes at room temperature, the reaction is stopped by the addition of 5 μl of a 3% phosphoric acid solution. 10 μl of the reaction is then spotted onto a P30 filtermat and washed three times for 5 minutes in 75 mM phosphoric acid and once in methanol prior to drying and scintillation counting.

[2] = target: CDK6/cyclinD3(h) (Homo sapiens, UniProt Q00534); conditions: read-out: percent residual activity of CDK6/cyclinD3(h)
Experimental: as §1
as §2, with “CDK6/cyclinD3” for “TBK1”, “0.1 mg/ml histone H1,” for “200 μM KRRRALS(p)VASLPGL (SEQ ID NO:214),”, “MGATP” for “MgATP”

[3] = target: ROCK-II(r) (Rattus norvegicus, UniProt Q62868); conditions: read-out: percent residual activity of ROCK-II(r)
ROCK-II(r), sequence (Q62868 whole entry): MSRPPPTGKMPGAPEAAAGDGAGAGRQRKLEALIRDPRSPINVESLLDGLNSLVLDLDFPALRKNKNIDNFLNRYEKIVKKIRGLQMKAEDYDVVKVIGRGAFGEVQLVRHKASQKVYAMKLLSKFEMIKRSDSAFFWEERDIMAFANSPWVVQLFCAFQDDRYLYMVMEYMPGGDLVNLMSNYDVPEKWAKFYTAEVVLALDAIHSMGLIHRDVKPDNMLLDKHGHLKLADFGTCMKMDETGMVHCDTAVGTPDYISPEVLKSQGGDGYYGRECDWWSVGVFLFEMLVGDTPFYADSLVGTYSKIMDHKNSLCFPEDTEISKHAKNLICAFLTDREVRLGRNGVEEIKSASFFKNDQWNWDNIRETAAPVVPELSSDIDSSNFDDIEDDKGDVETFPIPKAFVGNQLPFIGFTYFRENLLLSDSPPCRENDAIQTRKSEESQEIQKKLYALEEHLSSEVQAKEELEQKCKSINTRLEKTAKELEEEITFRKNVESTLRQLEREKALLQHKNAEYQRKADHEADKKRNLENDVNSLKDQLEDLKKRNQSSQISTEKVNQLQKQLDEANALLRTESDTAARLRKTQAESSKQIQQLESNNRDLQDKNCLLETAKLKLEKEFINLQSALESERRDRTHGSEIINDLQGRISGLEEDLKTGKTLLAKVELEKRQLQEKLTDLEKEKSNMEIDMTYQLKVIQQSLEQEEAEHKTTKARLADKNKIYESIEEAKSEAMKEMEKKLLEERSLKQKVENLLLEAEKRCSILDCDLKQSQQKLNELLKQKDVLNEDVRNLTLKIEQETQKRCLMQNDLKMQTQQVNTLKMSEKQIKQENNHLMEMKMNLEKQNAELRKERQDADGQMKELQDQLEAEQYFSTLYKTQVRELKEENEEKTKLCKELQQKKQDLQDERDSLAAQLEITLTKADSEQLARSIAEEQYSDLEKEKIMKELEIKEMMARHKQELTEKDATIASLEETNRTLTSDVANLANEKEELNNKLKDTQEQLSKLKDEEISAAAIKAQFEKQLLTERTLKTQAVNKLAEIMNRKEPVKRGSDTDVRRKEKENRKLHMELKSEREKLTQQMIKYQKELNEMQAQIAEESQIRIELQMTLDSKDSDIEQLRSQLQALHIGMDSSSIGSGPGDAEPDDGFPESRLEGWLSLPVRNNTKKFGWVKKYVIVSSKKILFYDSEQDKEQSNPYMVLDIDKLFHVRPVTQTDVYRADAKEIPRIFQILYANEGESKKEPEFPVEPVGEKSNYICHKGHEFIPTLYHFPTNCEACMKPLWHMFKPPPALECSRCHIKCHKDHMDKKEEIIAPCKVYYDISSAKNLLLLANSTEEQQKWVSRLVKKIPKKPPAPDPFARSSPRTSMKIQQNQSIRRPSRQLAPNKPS
Experimental: as §1
In a final reaction volume of 25 μl, ROCK-II (r) (5-10 mU) is incubated with 50 mM Tris pH 7.5, 0.1 mM EGTA, 30 μM […] (SEQ ID NO:222), 10 mM MgAcetate and [gamma-33P-ATP] (specific activity approx. 500 cpm/pmol, concentration as required). The reaction is initiated by the addition of the MgATP mix. After incubation for 40 minutes at room temperature, the reaction is stopped by the addition of 5 μl of a 3% phosphoric acid solution. 10 μl of the reaction is then spotted onto a P30 filtermat and washed three times for 5 minutes in 75 mM phosphoric acid and once in methanol prior to drying and scintillation counting.

[4] = target: PAK6(h) (Homo sapiens, UniProt Q9NQU5); conditions: read-out: percent residual activity of PAK6(h)
PAK6(h), sequence (Q9NQU5 whole entry): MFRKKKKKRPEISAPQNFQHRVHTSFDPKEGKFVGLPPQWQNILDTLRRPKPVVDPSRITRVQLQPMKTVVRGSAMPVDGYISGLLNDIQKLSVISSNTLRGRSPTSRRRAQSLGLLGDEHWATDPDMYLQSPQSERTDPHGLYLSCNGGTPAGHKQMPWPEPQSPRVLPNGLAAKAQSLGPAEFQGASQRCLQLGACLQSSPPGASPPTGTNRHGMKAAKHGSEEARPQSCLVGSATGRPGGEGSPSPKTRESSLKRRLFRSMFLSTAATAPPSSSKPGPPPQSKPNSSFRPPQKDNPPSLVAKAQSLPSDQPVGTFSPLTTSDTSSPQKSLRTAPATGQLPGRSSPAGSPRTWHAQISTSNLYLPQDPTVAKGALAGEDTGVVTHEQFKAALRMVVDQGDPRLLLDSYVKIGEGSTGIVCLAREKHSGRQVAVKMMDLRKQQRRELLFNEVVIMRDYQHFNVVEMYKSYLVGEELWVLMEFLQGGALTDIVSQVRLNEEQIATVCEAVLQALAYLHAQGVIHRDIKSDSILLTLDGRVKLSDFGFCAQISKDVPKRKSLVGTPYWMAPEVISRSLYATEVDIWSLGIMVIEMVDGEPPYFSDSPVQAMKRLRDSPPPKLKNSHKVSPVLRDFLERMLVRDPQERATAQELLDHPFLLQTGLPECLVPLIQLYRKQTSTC
Experimental: as §1
as §2, with “PAK6” for “TBK1”, “RRRLSFAEPG” for “KRRRALS(p)VASLPGL”, “NO:223),” for “NO:214),”, “[y-33P-ATP]” for “[gamma-33P-ATP]”

[5] = target: Ron(h) (Homo sapiens, UniProt Q04912); conditions: read-out: percent residual activity of Ron(h)
Ron(h), sequence (Q04912 25-1400): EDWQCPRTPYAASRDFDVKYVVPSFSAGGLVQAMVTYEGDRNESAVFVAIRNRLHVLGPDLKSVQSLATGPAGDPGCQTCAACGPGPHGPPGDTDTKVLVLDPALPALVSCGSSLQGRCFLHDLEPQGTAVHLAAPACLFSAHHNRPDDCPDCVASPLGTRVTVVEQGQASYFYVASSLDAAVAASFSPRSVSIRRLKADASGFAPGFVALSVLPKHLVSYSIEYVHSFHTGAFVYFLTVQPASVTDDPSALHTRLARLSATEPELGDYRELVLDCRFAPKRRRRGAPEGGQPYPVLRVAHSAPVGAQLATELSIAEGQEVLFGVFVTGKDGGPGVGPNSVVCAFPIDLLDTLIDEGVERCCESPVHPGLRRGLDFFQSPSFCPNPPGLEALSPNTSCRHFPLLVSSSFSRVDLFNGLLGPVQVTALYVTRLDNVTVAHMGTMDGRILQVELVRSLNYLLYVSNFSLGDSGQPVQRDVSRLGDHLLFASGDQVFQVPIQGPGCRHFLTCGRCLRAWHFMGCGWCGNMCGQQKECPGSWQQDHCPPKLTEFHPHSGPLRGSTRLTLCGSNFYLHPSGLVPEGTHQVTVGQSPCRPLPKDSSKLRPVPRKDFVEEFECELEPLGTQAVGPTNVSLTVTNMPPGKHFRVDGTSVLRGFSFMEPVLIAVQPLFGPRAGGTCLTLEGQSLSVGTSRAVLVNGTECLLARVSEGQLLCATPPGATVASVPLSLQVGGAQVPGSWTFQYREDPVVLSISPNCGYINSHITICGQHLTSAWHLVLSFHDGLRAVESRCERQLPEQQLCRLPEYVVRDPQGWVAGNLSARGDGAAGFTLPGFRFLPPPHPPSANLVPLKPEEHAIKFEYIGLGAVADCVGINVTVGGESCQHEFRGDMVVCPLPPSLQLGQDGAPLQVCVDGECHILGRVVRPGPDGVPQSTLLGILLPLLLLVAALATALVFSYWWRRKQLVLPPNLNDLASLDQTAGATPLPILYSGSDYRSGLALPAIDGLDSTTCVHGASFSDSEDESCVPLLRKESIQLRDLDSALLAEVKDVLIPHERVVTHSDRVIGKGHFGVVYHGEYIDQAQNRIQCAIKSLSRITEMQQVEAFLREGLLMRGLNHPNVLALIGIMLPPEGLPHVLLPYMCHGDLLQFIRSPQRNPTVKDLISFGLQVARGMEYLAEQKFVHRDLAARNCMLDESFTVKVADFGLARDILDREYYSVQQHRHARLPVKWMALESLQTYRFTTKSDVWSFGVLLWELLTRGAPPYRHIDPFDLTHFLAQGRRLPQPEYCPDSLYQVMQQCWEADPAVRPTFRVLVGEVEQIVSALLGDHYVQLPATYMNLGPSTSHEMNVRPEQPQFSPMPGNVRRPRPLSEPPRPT
Experimental: as §1
as §2, with “Ron” for “TBK1”, “250” for “200”, “KKSRGDYMTMQIG” for “KRRRALS(p)VASLPGL”, “NO:210),” for “NO:214),”

[6] = target: FGFR4(h) (Homo sapiens, UniProt P22455); conditions: read-out: percent residual activity of FGFR4(h)
FGFR4(h), sequence (P22455 22-802): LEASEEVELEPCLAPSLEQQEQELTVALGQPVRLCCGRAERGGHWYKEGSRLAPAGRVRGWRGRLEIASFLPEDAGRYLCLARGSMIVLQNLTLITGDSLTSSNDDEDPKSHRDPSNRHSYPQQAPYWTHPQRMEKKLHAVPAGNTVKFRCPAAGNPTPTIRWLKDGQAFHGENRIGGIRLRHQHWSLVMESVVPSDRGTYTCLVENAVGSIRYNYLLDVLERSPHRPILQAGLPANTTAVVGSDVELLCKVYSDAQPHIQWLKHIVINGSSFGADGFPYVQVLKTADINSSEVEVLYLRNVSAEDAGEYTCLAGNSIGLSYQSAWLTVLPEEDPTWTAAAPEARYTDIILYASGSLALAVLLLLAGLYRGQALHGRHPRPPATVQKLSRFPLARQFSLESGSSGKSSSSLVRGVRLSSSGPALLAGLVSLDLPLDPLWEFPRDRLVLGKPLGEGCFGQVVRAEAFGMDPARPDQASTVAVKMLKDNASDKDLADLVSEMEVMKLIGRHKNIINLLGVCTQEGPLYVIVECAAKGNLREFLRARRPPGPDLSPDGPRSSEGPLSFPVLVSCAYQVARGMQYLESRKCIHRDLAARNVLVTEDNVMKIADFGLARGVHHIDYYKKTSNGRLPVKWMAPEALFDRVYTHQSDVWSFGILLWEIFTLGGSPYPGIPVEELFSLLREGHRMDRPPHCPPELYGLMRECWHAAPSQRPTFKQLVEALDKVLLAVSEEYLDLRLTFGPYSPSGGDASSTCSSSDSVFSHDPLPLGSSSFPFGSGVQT
Experimental: as §1
as §2, with “FGFR4” for “TBK1”, “10 mM MnCl2, 0.1 mg/ml poly(Glu, Tyr) 4:1,” for “200 μM KRRRALS(p)VASLPGL (SEQ ID NO:214),”, “Filtermat A” for “P30 filtermat”

TBK1(h), sequence (Q9UHD2 whole entry): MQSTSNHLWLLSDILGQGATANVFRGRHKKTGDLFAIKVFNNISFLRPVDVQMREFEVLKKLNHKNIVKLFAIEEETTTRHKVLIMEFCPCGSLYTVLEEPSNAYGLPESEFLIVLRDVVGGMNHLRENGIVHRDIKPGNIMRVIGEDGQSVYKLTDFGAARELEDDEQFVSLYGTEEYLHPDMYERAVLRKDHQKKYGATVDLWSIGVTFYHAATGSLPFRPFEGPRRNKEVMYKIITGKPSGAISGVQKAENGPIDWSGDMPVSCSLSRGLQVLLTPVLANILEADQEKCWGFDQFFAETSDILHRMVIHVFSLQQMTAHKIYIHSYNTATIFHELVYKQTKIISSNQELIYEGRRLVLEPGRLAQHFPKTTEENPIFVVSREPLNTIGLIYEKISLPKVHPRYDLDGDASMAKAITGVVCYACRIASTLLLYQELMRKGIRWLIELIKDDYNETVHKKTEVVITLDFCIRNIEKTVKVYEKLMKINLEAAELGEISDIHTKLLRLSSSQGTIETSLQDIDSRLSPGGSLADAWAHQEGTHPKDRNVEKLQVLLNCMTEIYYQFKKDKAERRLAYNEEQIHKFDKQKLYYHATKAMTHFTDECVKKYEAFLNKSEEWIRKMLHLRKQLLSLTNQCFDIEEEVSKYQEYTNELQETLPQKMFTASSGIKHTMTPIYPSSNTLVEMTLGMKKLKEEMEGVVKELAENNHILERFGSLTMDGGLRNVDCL

remaining activity at 2.5 µM [1] | remaining activity at 2.5 µM [2] | remaining activity at 2.5 µM [3] | remaining activity at 2.5 µM [4] | remaining activity at 2.5 µM [5] | remaining activity at 2.5 µM [6] | SMILES
71% | 85% | 48% | 123% | 71% | 112% | CN1CCCC1CCNC(=O)c1cn2c3c(c(N4CCC(c5cnccn5)C4)c(F)cc3c1=O)Oc1cc3ccccc3cc1-2 (stereo not drawn) [Compound A-1]
114% | 100% | 103% | 112% | 95% | 104% | CC(=O)N1CCN(c2ccc3c(=O)c(C(=O)NCCN4CCCC4)c4n(C)c5ccccc5n4c3n2)CC1 [Compound B-1]

Reference: patent publication US20070117770A1, “Human ribosomal DNA (rDNA) and ribosomal RNA (rRNA) nucleic acids and uses thereof” (Cylene Pharmaceuticals, Inc., priority 2005, published 2007)
